In PubChem BioAssay AID1259407 (Chemical Carcinogenesis Research Information System (CCRIS), 2018):
Calls of active or inactive are those of the source. How the calls were made is not given here.

System: CCRIS mutagenicity, Ames/micronucleus/aberration tests
Test: CCRIS mutagenicity studies

Measured: mutagenic call

NC(=Nc1ccccc1)Nc1ccccc1
inactive: Test System: AMES SALMONELLA TYPHIMURIUM, Strain/Indicator: TA98, Metabolic Activation: NONE, Method: PREINCUBATION inactive; negative | Test System: AMES SALMONELLA TYPHIMURIUM, Strain/Indicator: TA98, Metabolic Activation: NONE, Method: STANDARD PLATE inactive; negative | Test System: AMES SALMONELLA TYPHIMURIUM, Strain/Indicator: TA98, Metabolic Activation: RAT LIVER S-9, PHENOBARBITAL AND BETA-NAPHTHOFLAVONE, Method: PREINCUBATION inactive; negative | Test System: AMES SALMONELLA TYPHIMURIUM, Strain/Indicator: TA98, Metabolic Activation: RAT, LIVER, S-9, AROCLOR 1254, Method: STANDARD PLATE inactive; negative | Test System: AMES SALMONELLA TYPHIMURIUM, Strain/Indicator: TA98, Metabolic Activation: S-9, Method: STANDARD PLATE inactive; negative | Test System: AMES SALMONELLA TYPHIMURIUM, Strain/Indicator: TA100, Metabolic Activation: NONE, Method: PREINCUBATION inactive; negative | Test System: AMES SALMONELLA TYPHIMURIUM, Strain/Indicator: TA100, Metabolic Activation: NONE, Method: STANDARD PLATE inactive; negative | Test System: AMES SALMONELLA TYPHIMURIUM, Strain/Indicator: TA100, Metabolic Activation: RAT LIVER S-9, PHENOBARBITAL AND BETA-NAPHTHOFLAVONE, Method: PREINCUBATION inactive; negative | Test System: AMES SALMONELLA TYPHIMURIUM, Strain/Indicator: TA100, Metabolic Activation: RAT, LIVER, S-9, AROCLOR 1254, Method: STANDARD PLATE inactive; negative | Test System: AMES SALMONELLA TYPHIMURIUM, Strain/Indicator: TA100, Metabolic Activation: S-9, Method: STANDARD PLATE inactive; negative | Test System: AMES SALMONELLA TYPHIMURIUM, Strain/Indicator: TA1535, Metabolic Activation: HAMSTER, LIVER, S-9, AROCLOR 1254, Method: STANDARD PLATE inactive; negative | Test System: AMES SALMONELLA TYPHIMURIUM, Strain/Indicator: TA1535, Metabolic Activation: NONE, Method: PREINCUBATION inactive; negative | Test System: AMES SALMONELLA TYPHIMURIUM, Strain/Indicator: TA1535, Metabolic Activation: NONE, Method: STANDARD PLATE inactive; negative | Test System: AMES SALMONELLA TYPHIMURIUM, Strain/Indicator: TA1535, Metabolic Activation: RAT LIVER S-9, PHENOBARBITAL AND BETA-NAPHTHOFLAVONE, Method: PREINCUBATION inactive; negative | Test System: AMES SALMONELLA TYPHIMURIUM, Strain/Indicator: TA1535, Metabolic Activation: RAT, LIVER, S-9, AROCLOR 1254, Method: STANDARD PLATE inactive; negative | Test System: AMES SALMONELLA TYPHIMURIUM, Strain/Indicator: TA1537, Metabolic Activation: HAMSTER, LIVER, S-9, AROCLOR 1254, Method: STANDARD PLATE inactive; negative | Test System: AMES SALMONELLA TYPHIMURIUM, Strain/Indicator: TA1537, Metabolic Activation: NONE, Method: PREINCUBATION inactive; negative | Test System: AMES SALMONELLA TYPHIMURIUM, Strain/Indicator: TA1537, Metabolic Activation: RAT LIVER S-9, PHENOBARBITAL AND BETA-NAPHTHOFLAVONE, Method: PREINCUBATION inactive; negative | Test System: AMES SALMONELLA TYPHIMURIUM, Strain/Indicator: TA1537, Metabolic Activation: RAT, LIVER, S-9, AROCLOR 1254, Method: STANDARD PLATE inactive; negative | Test System: AMES SALMONELLA TYPHIMURIUM, Strain/Indicator: TA1538, Metabolic Activation: HAMSTER, LIVER, S-9, AROCLOR 1254, Method: STANDARD PLATE inactive; negative | Test System: AMES SALMONELLA TYPHIMURIUM, Strain/Indicator: TA1538, Metabolic Activation: NONE, Method: PREINCUBATION inactive; negative | Test System: AMES SALMONELLA TYPHIMURIUM, Strain/Indicator: TA1538, Metabolic Activation: NONE, Method: STANDARD PLATE inactive; negative | Test System: AMES SALMONELLA TYPHIMURIUM, Strain/Indicator: TA1538, Metabolic Activation: RAT LIVER S-9, PHENOBARBITAL AND BETA-NAPHTHOFLAVONE, Method: PREINCUBATION inactive; negative | Test System: AMES SALMONELLA TYPHIMURIUM, Strain/Indicator: TA1538, Metabolic Activation: RAT, LIVER, S-9, AROCLOR 1254, Method: STANDARD PLATE inactive; negative | Test System: E.COLI, Strain/Indicator: WP2UVRA, Metabolic Activation: NONE, Method: PREINCUBATION inactive; negative | Test System: E.COLI, Strain/Indicator: WP2UVRA, Metabolic Activation: RAT LIVER S-9, PHENOBARBITAL AND BETA-NAPHTHOFLAVONE, Method: PREINCUBATION inactive; negative | Test System: MOUSE LYMPHOMA, Strain/Indicator: L5178Y (TK+/TK-), Metabolic Activation: NONE, Method: SUSPENSION/PLATE inactive; negative. reevaluation of results: negative | Test System: MOUSE LYMPHOMA, Strain/Indicator: L5178Y (TK+/TK-), Metabolic Activation: RAT, LIVER, S-9, AROCLOR 1254, Method: SUSPENSION/PLATE inactive; negative. reevaluation of results: inconclusive
active: Test System: AMES SALMONELLA TYPHIMURIUM, Strain/Indicator: TA98, Metabolic Activation: HAMSTER, LIVER, S-9, AROCLOR 1254, Method: STANDARD PLATE active; positive | Test System: AMES SALMONELLA TYPHIMURIUM, Strain/Indicator: TA100, Metabolic Activation: HAMSTER, LIVER, S-9, AROCLOR 1254, Method: STANDARD PLATE active; positive
